We go through 1 molecule from patent US9308244B2, “Combination therapy using active immunotherapy” (immatics Biotechnologies GmbH, priority 2007, dated 2016).

Like-named read-outs stand apart in the source and are kept apart here.

How the values of data set [1] were obtained: Female C57BL/6 mice (20-25 g, Harlan Winkelmann GmbH, Borchen, Germany) were used for all experiments described in this section. Animals were kept in the animal facility of the Dept. of Immunology at the University of Tuebingen. Animals were cared for by trained animal keepers and health status of animals was supervised by the veterinaries of the University of Tübingen. Feeding with drug was also performed in part by the local animal keepers after special training. All animals were supplied with water and food ad libitum. The described experiments were performed according to procedure no. IM1/06 approved by the Regierungsprasidium Tuebingen.
A liquid, viscous vehicle composed of 30% (w/v) Cremophor EL (Sigma, Deisenhofen, Germany), 30% (w/v) PEG 400 (Sigma, Deisenhofen, Germany), 10% ethanol p.a., 10% glucose was used. Sunitinib and sorafenib were suspended in vehicle according to the planned dosages in a way that […] body weight had to be applied to all mice, according to approx. 50 μl of suspension. Feasible aliquots were prepared from suspensions and from vehicle and stored until use at −20° C. in the dark. Thawed substance was stored at 4° C. and used within the next three days. Animals were weighed before start of treatment and thereafter weekly. The deduced dosage was applied daily using a 1 ml syringe with gavage into the backward cavity of the mouth of the animal without anesthesia. Drug delivery into blood plasma was controlled as described in example 1.
1) Immunization under continuous treatment with tyrosine kinase inhibitors. Pretreatment phase was two weeks (see FIG. 5A). […]
3) The experimental design was identical to a) Beside negative and positive control groups, groups treated with 60 mg/kg body weight sorafenib, and 20 and 40 mg/kg body weight sunitinib were included (6 mice per group). For spleen cells, CD4, Tregs, CD8 cells, and B cells were assessed, for PBMCs CD4, CD8, B cells and Tregs were analyzed.

Data set [2] deals with HLA-A*02+ PBMCs (CD4+ and CD8+ effector cells). Conditions: HLA-mismatched target cells, seven days, increasing TKI concentrations. As to the method:
Two fresh buffy coat (HLA-A*02+ and HLA-A*02−) were obtained from the Katharinenhospital Stuttgart. PBMCs were isolated by standard density gradient isolation and incubated overnight in T-cell medium (TCM) for human in vitro priming as in WP03 #4. Ca2+ and Mg2+ free PBS (Cambrex) washed HLA-A*02+ PBMCs were labeled at 1×10^7 cells/ml with 1 μM CFSE (Fluka, Buchs, Germany) at 37° C. for 4 minutes. Labeling was stopped by adding the same volume heat inactivated FCS (Invitrogen) and labeled cells were washed in TCM. Irradiation of target or feeder cells, if indicated, was performed at 33 Gy using a 1000 Elite gammacell (MDS Nordion, Ottawa, Canada). Stock solutions of sorafenib tosylate and sunitinib malate were prepared in DMSO (Merck, Darmstadt, Germany) and frozen aliquoted at −80° C. Mixed lymphocyte reactions were performed by coculturing 2×10^5 CFSE labeled effector plus 2×10^5 irradiated target cells as indicated per well of 96 well round bottom plates in 200 μl TCM in the presence of indicated concentrations of sorafenib, sunitinib or DMSO at 37° C. and 5% CO2 (day 1). On day 4, 100 μl supernatant was removed and 100 μl TCM supplemented with the original concentration of TKIs was added. […] Cells were washed, fixed in PFEA containing 1% formaldehyde (Fluka) and analyzed on a FACSCalibur (BD). […]

The nature of data set [3]: HPLC quantification of TKI plasma levels in mouse models. It counts as in vivo. The note with it: oral dosing.
Method: The proteins were precipitated with 40 μl 100% acetonitril (Acros, Geel, Belgium), centrifuged and filtered through a 0.2 μm PVDF filter. 10 μl was directly injected to the HPLC system.
The HPLC system consisted of a Binary HPLC pump (Shimadzu LC10aVP), a Shimadzu SIL-10aVP autosampler, a Shimadzu CTO-10asVP column oven and a Shimadzu SPD10aVP detector. Data acquisition and analysis was performed using the Shimadzu Class-VP 7.3 software. Chromatographic separation was carried out on a reverse phase C18 column (Reprosil Pur ODS-3μ, 60×2 mm). To protect the analytical column a guard column has been used (Reprosil Pur ODS-5μ, 10×2 mm). Eluent A consisted of water (LCMS grade, Acros, Geel, Belgium), modified by 0.1% formic acid (Merck, Darmstadt, Germany) and eluent B was 80% acetonitril (Acros, Geel, Belgium) with 0.1% formic acid (Merck, Darmstadt, Germany).
The following gradient was used: 5 min 25% eluent B, 15 min 62.5% eluent B, 6 min 80% eluent B and 5 min 80% eluent B. The temperature of the autosampler was kept at 4° C. The temperature of the column was maintained at 30° C. The detection wavelength was set at 400 nm, the injection volume was 10 μl. The column was equilibrated with the mobile phase at a flow rate 0.5 ml/min.
For Sorafenib analysis, 10 μl of 50% acetonitril (Acros, Geel, Belgium) was added to 50 serum or medium in 0.5 ml PCR tubes and mixed for 10 seconds. […]
For the next data set, the system named is A498 tumor cells. Conditions: A498, 24 h; 13 μM sorafenib or 250 nM sunitinib; normal medium control = 100%.
The next data set relates to C57BL/6 T cells. In words: Mouse mixed lymphocyte reaction (CFSE-labeled C57BL/6 spleen cells vs irradiated BALB/c splenocytes). It counts as cell-based. The note with it: sorafenib: at concentration near the steady-state plasma level of treated patients. The method, then: CFSE-labeled spleen cells from C57BL/6 (H2-b) mice were co-cultured with irradiated splenocytes from BALB/c (H2-d) mice, resulting in the strong allogenic response and proliferation of the C57BL/6 T cells against H2-d MHC molecules. The proliferation of the T cells results in a diminished CFSE staining of the divided cells. Percentage of divided cells and their number of divisions can be analyzed by flow cytometry.
Spleen cells were prepared from 1 C57BL/6 mouse and 1 BALB/c mouse (Harlan Winkelmann GmbH, Borchen, Germany). BALB/c cells were irradiated with 33 Gy. Effectors (C57BL/6) were adjusted to 20 Mio cells/ml. A 2 mM 5(6)-Carboxyfluorescindiacetate-N-succinimidylester (CFSE, Fluka, Buchs, Switzerland) solution in PBS was freshly prepared from a 10 mM DMSO stock solution. The cell suspension was mixed 1:1 with the CFSE solution. After incubation at 37° C. for 4 min, reaction was stopped by addition of fetal calf serum (Biochrom, Berlin, Germany), and free CFSE was washed out. 2×10^5 stimulator cells (BALB/c) were plated into cavities of a 96-well round-bottom plate. 1×10^5 or 2×10^5 CFSE-labeled effector cells and tyrosine kinase inhibitors at two different concentrations were added. Appropriate positive and negative controls were included. All cultures were in 200 μl T-cell medium with 0.1% (v/v) DMSO for 5 or 7 days without further medium change. Thereafter, cells were stained with fluorescently labelled anti-CD4-PerCP and anti-CD8-FITC antibodies (both BD Biosciences, Heidelberg, Germany) and analyzed by flow cytometry.
The experiment described above was repeated with the exception that a 96-well flat-bottom plate was used for mixed lymphocyte reactions (MLRs), a syngenic control with irradiated C57BL/6 cells was included, more concentrations of inhibitors were assessed, and all groups were analyzed in triplicates.
During cultivation, half of the medium was replaced with fresh appropriate medium supplemented with final concentrations of tyrosine kinase inhibitors every day, and proliferation was analyzed at day 7 only. Additionally cells were stained for H2-Kb to clearly identify effector cells in a further dimension.

Data set [4] concerns OVA-001 specific CD8+ T-cells. It counts as in vivo, C57BL/6 mice. The note with it: continuous treatment, OVA-001 immunized.

With `CCN(CC)CCNC(=O)c1c(C)[nH]c(/C=C2\C(=O)Nc3ccc(F)cc32)c1C` [Sunitinib], the Deaths in data set [1] (80 mg/kg sunitinib, experiment one) was 2 out of 6. For the same molecule, the “Inflamed lesions of injections sites” value in data set [1] (mouse, in vivo) is “frequently observed”. Besides, in data set [2], the “Proliferation of CD8+ and CD4+ effector cells” value was “No effect”. Also, the “Bioavailability / plasma levels at the used doses” value in data set [3] is on record as “confirmed to reach plasma levels shown by others to be effective in tumor growth inhibition”. In the data set on A498 tumor cells, the “% Expression relative to control: ADFP” value is on record as 87%, the “% Expression relative to control: APOL1” value stood at 62%, the “% Expression relative to control: CCND1” value is on record as 93% and the “% Expression relative to control: GUCY1A3” value is 57%. Besides, in the data set on A498 tumor cells, the “% Expression relative to control: HLA-A” value stood at 93%, the “% Expression relative to control: HLA-B” value came to 76%, the “% Expression relative to control: HLA-C” value is 87% and the “% Expression relative to control: MET” value came to 41%. Further, in the data set with A498 tumor cells, the “% Expression relative to control: MMP7” value is 31%, the “% Expression relative to control: MUC1” value came to 54%, the “% Expression relative to control: PSMB8” value is recorded as 87% and the “% Expression relative to control: PSMB9” value worked out at 132%. Further, the “% Expression relative to control: TAP1” value in the data set with A498 tumor cells was 123%. The “Drug-related toxicity for cells in mixed lymphocyte reactions (summary)” value in the data set with C57BL/6 T cells is reported as “no drug-related toxicity was observed”. The “OVA-001 specific CD8+ T-cells, mean” value in data set [4] (20 mg/kg bw, n=12) turned out to be 3.47%. The “OVA-001 specific CD8+ T-cells, mean” value in data set [4] (40 mg/kg bw, n=6) came out at 2.73%. In addition, the “OVA-001 specific CD8+ T-cells, mean” value in data set [4] (80 mg/kg bw, n=2) was determined as 0.51%.
